# Paper PMC11020070, “Discovery of Protease-Activated Receptor 4 (PAR4)-Tethered Ligand Antagonists Using Ultralarge Virtual Screening” (ACS Pharmacology & Translational Science, 2024)
# pIC50: −log10 of the molar value. Read-outs that look alike come from different tables or passages of the source.
# Experiments:
# [1] = parameters: method as in PMID 35758258, PMID 23222541; details: phase I, healthy participants; cited from earlier work
# PAR4 = biological target: T1, PAR4 (Homo sapiens, UniProt Q96RI0); experiment: Human platelet activity assay, flow cytometry, γ-thrombin activation; format: cell-based; parameters: endogenous in cells; host or cells: washed human platelets from healthy volunteers; details: human platelets, 100 nM γ-thrombin
# T1 sequence (Q96RI0 18-385): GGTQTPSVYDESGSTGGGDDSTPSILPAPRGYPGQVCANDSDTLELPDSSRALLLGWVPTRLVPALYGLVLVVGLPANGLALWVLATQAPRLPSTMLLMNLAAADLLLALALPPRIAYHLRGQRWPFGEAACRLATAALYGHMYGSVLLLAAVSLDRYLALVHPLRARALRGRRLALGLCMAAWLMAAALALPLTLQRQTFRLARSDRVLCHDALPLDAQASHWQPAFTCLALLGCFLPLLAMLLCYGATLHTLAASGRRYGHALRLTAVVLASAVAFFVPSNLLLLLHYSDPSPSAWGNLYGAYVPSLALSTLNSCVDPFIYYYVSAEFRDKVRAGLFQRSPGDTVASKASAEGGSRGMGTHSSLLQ
# Method: To test the antagonistic effect of the compounds on PAR4, a flow cytometry assay of human platelets was employed. Each compound was screened at 10 μM in human platelets using flow cytometry for GPIIbIIIa activation (PAC1) and P-selectin (CD62p) expression as previously described.[4] Activation of GPIIbIIIa allows interaction with divalent fibrinogen or multivalent von Willebrand factor, leading to platelet aggregation.[41] PAR4 stimulation also triggers α-granule secretion containing P-selectin.[5] […] Platelets were treated with each test compound or vehicle control DMSO before activating with γ-thrombin (100 nM) or PAR4 agonist peptide mimetic (200 μM, “PAR4-AP” AYPGKF) for 30 min. γ-thrombin activates PAR4 but not PAR1.[42]
# Activation of washed human platelets was monitored by flow cytometry for the detection of PAC1 (GPIIbIIIa activation) and CD62p (P-selectin expression) binding as previously described.[4] Human platelets were obtained from healthy volunteers. The Vanderbilt University Internal Review Board approved these studies. Informed consent was obtained from all individuals prior to the blood draw. 10 mL of whole blood was collected into 0.32% Na citrate. Platelet-rich plasma was collected after room-temperature centrifugation at 1100 rpm for 15 min on a Thermo Forma 400 centrifuge (Thermo Fisher, Waltham, MA). 1/10 volume of acid citrate dextrose (ACD) buffer was added to the collected supernatant and incubated for 10 min. After centrifugation at 2400 rpm for 10 min, the platelet pellet was resuspended in 1 mL Tyrode’s buffer (“TBB”: 15 mM HEPES, 0.33 mM NaH2PO4, pH 6.4, 138 mM NaCl, 2.7 mM KCl, 1 mM MgCl2, 5.5 mM dextrose, 0.1% bovine serum albumin). Platelets were collected, counted on a Z1 Coulter Particle Counter (Beckman Coulter, Brea, CA), and diluted in TBB to 1.5 × 10^7 platelets/mL. 60 uL of platelets were aliquoted to each tube and preincubated with 40 μL of TBB with antibodies PAC1 FITC (Becton Dickinson, Franklin Lakes NJ) and P-selectin PE (Becton Dickinson) and either test compound antagonist or DMSO vehicle control for 20 min. Platelets were then activated with 100 nM γ-thrombin or other agonists for 30 min. Samples were then fixed by adding 100 μL of 2% paraformaldehyde. After 30 min, samples were diluted by adding 300 μL of phosphate-buffered saline (PBS) and stored at 4C. Data were collected on a three-laser BD LSRFortessa (Becton Dickinson) and analyzed with FlowJo software (FlowJo LLC, Ashland, OR). The mean fluorescence intensity (geometric) of PE and FITC was determined from 30,000 events after compensation correction. Data were normalized to vehicle (DMSO) controls.
# Compounds were screened for inhibition activity against human PAR4 using 100 nM γ-thrombin or 200 μM PAR4-AP in a single-point assay (10 μM test compound).
# mouse PAR4 = biological target: T2, mouse PAR4 (Mus musculus, UniProt O88634); experiment: Mouse platelet activity assay, flow cytometry, γ-thrombin activation; format: cell-based
# T2 construct: washed mouse platelets were prepared by collecting cardiac puncture blood; endogenous in cells; host or cells: washed mouse platelets (cardiac puncture blood)
# T2 sequence (O88634 17-396): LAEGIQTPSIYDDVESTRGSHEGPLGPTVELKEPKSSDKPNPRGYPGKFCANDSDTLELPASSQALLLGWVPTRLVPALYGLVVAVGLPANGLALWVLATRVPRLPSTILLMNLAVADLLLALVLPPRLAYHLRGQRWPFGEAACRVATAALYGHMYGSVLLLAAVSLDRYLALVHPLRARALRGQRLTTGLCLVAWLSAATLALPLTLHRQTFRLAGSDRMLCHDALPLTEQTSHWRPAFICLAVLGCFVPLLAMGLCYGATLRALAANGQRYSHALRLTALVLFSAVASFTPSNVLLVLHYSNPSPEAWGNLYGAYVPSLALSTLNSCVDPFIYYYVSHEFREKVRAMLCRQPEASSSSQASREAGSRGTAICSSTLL
# Method: For mouse PAR4 activity, washed mouse platelets were prepared by collecting cardiac puncture blood with 200 μL of 20 U/mL heparin. Following centrifugation at 1000 rpm for 15 min, plasma and buffy coat were collected into a separate tube and spiked with apyrase and PGE1. After centrifuging at 1000 rpm for 8 min, the platelet-rich plasma was transferred to another tube and centrifuged at 2200 rpm for 10 min to pellet the platelets. Platelets were resuspended in TBB + apyrase + PGE1. Platelets were counted and diluted in TBB to a final concentration of 2 × 10^7 platelets/mL. 50 μL of platelets were aliquoted to each tube preincubated with 50 μL of TBB with antibodies for mouse GPIIbIIIa and P-selectin (Emfret, Eibelstadt Germany) and either test compound antagonist or DMSO control. Platelets were activated with 316 nM γ-thrombin for 30 min. Samples were then fixed with 100 μL of 2% paraformaldehyde for 20 min and diluted with 300 μL of PBS. Flow cytometry counts are measured as for human platelets on a three-laser BD LSRFortessa (Becton Dickinson) and analyzed with FloJo software.
# [2] = Plasma protein binding, human plasma; format: in vitro ADME; details: pH 7.4, read-out: human PPB fu
# [3] = Microsomal stability, human liver microsomes; format: in vitro ADME
# Method: The metabolic stability of each compound was investigated in mouse and human hepatic microsomes using substrate depletion methodology (% parent compound remaining). Prior to use, microsomes were removed from the freezer and allowed to thaw in a 37 °C water bath before being placed on wet ice.
# In separate 96-well plates for each time point, a mixture of 0.1 M potassium phosphate-buffered (pH 7.4), 3 mM MgCl2, and 2.5 mg/mL microsomes were prewarmed at 37 °C for 5 min. Following the preincubation, a 1 μM test compound and 1 mM NADPH (for 3, 7, 15, 25, or 45 min time points) or buffer (for 0 min time point) were added to initiate the reaction. Under standard conditions, reactions were initiated with the addition of NADPH. To delineate the contribution of esterases, some experiments were initiated by the addition of substrate in the presence or absence of NADPH. Plates were incubated at 37 °C under ambient oxygenation. At the respective times, each plate’s reaction was precipitated by the addition of 2 volumes of ice-cold acetonitrile containing an internal standard (carbamazepine, 50 nM). The plates were centrifuged at 4000 rcf (4 °C) for 5 min. The resulting supernatants were transferred and diluted 1:1 (supernatant:water) into new 96-well plates in preparation for LC/MS/MS analysis. Each compound was assayed in triplicate within the same 96-well plate. The in vitro half-life (t1/2, min, eq 1), intrinsic clearance (CLint, mL/min/kg, eq 2), and subsequent predicted hepatic clearance (CLhep, mL/min/kg, eq 3) were determined employing the following equations [drawing 1] 1 [drawing 2] 2 [drawing 3] 3 The estimated percent contribution to metabolism was calculated from the percent substrate lost plots generated from metabolic incubations initiated with the addition of a test compound. Calculations compared the area under the curve (AUC) from conditions in the presence and absence of NADPH and buffer-only (control) conditions (eqs 4 and 5). AUC was calculated by using the trapezoidal method [drawing 4] 4 [drawing 5] 5
# The analysis of in vitro samples from microsomal stability or plasma protein binding experiments was determined by employing LCMS/MS with an electrospray ionization-enabled 5500 Sciex instrument (Sciex, Foster City, CA) that was coupled to Agilent HPLC pumps and an autosampler (Agilent Technologies, Santa Clara, CA). Analytes were separated by gradient elution using a Kinetex C18 column (2.1 mm × 50 mm, 5 μm; Phenomenex, Torrance, CA) warmed to 35 °C. Mobile phase A was 0.5% formic acid in water, and mobile phase B was 0.5% formic acid in acetonitrile. […] The total run time was 2.8 min, and the HPLC flow rate was 0.5 mL/min. Mass spectral analyses were performed using multiple reaction monitoring, with transitions and voltages specific for each analyte using a Turbo Ion Spray source (source temperature of 500 °C) in positive ionization mode (5.0 kV spray voltage). Multiple reaction monitoring transitions were the following: 6110B8 (m/z 345.02 → 149.03, DP = 31; EP = 10; CE = 37 and CXP = 14), 6G3R (m/z 421.06 → 225.12, DP = 91; EP = 10; CE = 39 and CXP = 12), 5D22 (m/z 309.068 → 211.16, DP = 131; EP = 10; CE = 29 and CXP = 12), and carbamazepine (m/z 237 → 194, DP = 96; EP = 10; CE = 25 and CXP = 8). Data were analyzed using OS Sciex Analyst 1.5.1 (SCIEX, Framingham, MA), Graphpad Prism 10.1.0 (GraphPad Software, Boston, Massachusetts), and Microsoft Excel version 2310 (Microsoft, Redmond, WA).
# [4] = GPIIbIIIa activation (PAC1), read-out: Human Platelets PAC1 IC50
# [5] = P-selectin (CD62p), read-out: Human Platelets P-Sel IC50
# [6] = mouse platelets, 316 nM γ-thrombin, GPIIbIIIa (JonA), read-out: Mouse Platelets JonA IC50
# [7] = mouse platelets, 316 nM γ-thrombin, P-selectin, read-out: Mouse Platelets P-Sel IC50
pIC50 (PAR4; [4]),pIC50 (PAR4; [5]),pIC50 (mouse PAR4; [6]),pIC50 (mouse PAR4; [7]),"pIC50 (mouse PAR4; Table 4 summary, read-out: mouse PAR4 IC50)",fraction unbound at 4 h [2],"CLint scaled at 1 µM ([3]; pH 7.4, human liver microsomes, in vitro, reaction started with NADPH)",human CLhep ([3]; predicted hepatic clearance from human liver microsomes),Compound,safety and tolerability [1]
–,–,–,–,–,–,–,–,COc1cc(OCc2csc(-c3ccc(C(=O)N(C)C)cc3)n2)c2cc(-c3cn4nc(OC)sc4n3)oc2c1 [BMS-986141],safe and well tolerated
5.55,5.66,–,–,–,–,–,–,Cc1nc(NC(=O)c2cc(-c3ccccc3)[nH]n2)n[nH]1 [Compound 8],–
5.95,5.94,4.95,5.21,–,–,–,–,Cc1nc(NC(=O)c2cc(C(=O)OC(C)(C)C)n(-c3ccccc3)n2)n[nH]1 [Compound 10],–
6.22,6.07,5.96,5.79,–,–,–,–,CC(C)c1cc(C(=O)Nc2n[nH]c(-c3c(F)cccc3F)n2)nn1C [Compound 11],–
6.23,6.20,6.15,6.16,–,–,–,–,Cn1nc(C(=O)Nc2n[nH]c(-c3ccccc3F)n2)cc1C1CC1 [Compound 13],–
6.08,5.98,5.87,5.89,–,–,–,–,Cn1nc(C(=O)Nc2n[nH]c(-c3ccccc3Cl)n2)cc1C1CC1 [Compound 14],–
6.31,6.24,6.17,6.09,–,–,–,–,CCc1cc(C(=O)Nc2n[nH]c(-c3c(F)cccc3F)n2)nn1C [Compound 15],–
6.34,6.24,5.94,5.93,–,–,–,–,Cn1nc(C(=O)Nc2n[nH]c(-c3ccc(C#N)cc3)n2)cc1C1CC1 [Compound 16],–
6.03,5.86,5.92,5.94,–,–,–,–,Cc1n[nH]c(NC(=O)c2nn(-c3cccc(F)c3)c3c2CCC3)n1 [Compound 19],–
5.49,5.32,–,–,–,–,–,–,Cc1n[nH]c(NC(=O)c2nn(-c3ccc(F)cc3)c3c2CCC3)n1 [Compound 21],–
6.41,6.28,6.02,5.95,–,–,–,–,O=C(Nc1n[nH]c(C2CC2)n1)c1nn(-c2ccccc2)c2c1CCC2 [Compound 24],–
6.74,6.64,6.45,6.45,–,–,–,–,O=C(Nc1n[nH]c(C2CC2)n1)c1nn(-c2ccccc2)c2c1CCCC2 [Compound 26],–
6.82,6.68,6.44,6.43,–,–,–,–,O=C(Nc1n[nH]c(-c2cccc(C(F)(F)F)c2)n1)c1nn(-c2ccccc2)c2c1CCCC2 [Compound 27],–
6.60,6.55,6.01,6.10,–,–,–,–,O=C(Nc1n[nH]c(C2CC2)n1)c1nn(-c2cccc(F)c2)c2c1CCCC2 [Compound 28],–
6.35,6.22,5.95,5.94,–,–,–,–,O=C(Nc1n[nH]c(-c2ccccc2)n1)c1nn(-c2ccccc2)c2c1CCCC2 [Compound 29],–
6.40,6.30,5.73,5.85,–,–,–,–,N#Cc1ccc(-c2nc(NC(=O)c3nn(-c4ccccc4)c4c3CCCC4)n[nH]2)cc1 [Compound 30],–
–,–,6.53,6.46,6.53,0.006,25 L/h/kg,1.2 L/h/kg,O=C(Nc1n[nH]c(-c2cccc(OC(F)F)c2)n1)c1nn(-c2ccccc2)c2c1CCCC2 [Compound 33],–
